Experimental data as given in PMC12481576, “Barbituric Acid Derivatives as Covalent Inhibitors of Leishmania braziliensis Dihydroorotate Dehydrogenase” (Journal of Medicinal Chemistry, 2025).
Converted amounts (≈) assume the structure as drawn. Read-outs that look alike come from different tables or passages of the source.

Assays:
[1] = Kinetic solubility assay in PBS pH 7.4; format: physicochemical; conditions: PBS pH 7.4, 200 μM test conc, 1% DMSO, 2 h at 25 °C
Experimental: The plate was incubated for 2 h at 25 °C. The precipitates on the incubation plate were removed by filtration and the filtrates were quantified by LC-MS/MS. Calibration curves were prepared for each compound by using 5–6 points. Samples were analyzed by UV–vis.

[2] = target: T1, LbDHODH (Leishmania braziliensis, UniProt E9AI53); assay: biochemical; conditions: for IC50: LbDHODH; for inhibition at 100 µM: read-out: enzyme inhibition
T1 sequence (E9AI53 entry or part of it): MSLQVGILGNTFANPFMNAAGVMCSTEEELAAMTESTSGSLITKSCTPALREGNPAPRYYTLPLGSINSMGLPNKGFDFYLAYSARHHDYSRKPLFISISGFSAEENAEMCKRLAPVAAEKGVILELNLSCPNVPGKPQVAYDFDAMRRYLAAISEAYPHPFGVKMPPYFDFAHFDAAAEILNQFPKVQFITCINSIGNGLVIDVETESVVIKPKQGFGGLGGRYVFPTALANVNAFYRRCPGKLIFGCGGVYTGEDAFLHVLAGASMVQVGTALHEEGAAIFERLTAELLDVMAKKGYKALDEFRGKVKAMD
Experimental: To assess the ability of compounds 2a–2i to inhibit LbDHODH via covalent bond formation with Cys^131, we initially screened them at a concentration of 100 μM under two conditions: with and without a 4-h preincubation with the enzyme.
The experiments were performed in a 96-well microplate reader (SpectraMax Plus 384, Molecular Devices, USA), containing the […] of the buffer 60 mM DCIP, 50 mM Tris pH 8.15, 150 mM KCl, 0.1% Triton X-100, 50 μM DHO and 10 μM of LbDHODH at 165 nM. The reaction was monitored every 3 s at 610 nm over a period of 60 s, in triplicate, for the control and each concentration of the inhibitor. All assays were performed without incubation (0h) and with 4-h preincubation of the inhibitor with LbDHODH, using 5% DMSO (v/v) as control. […]. […] The resulting kobs values were plotted as a function of inhibitor concentration, and the data in the initial linear region was fit to determine the slope, which is kinact/KI. All regressions were performed with GraphPad Prism 9.

[3] = target: T1, LbDHODH; assay: Kinact/KI determination from LbDHODH progress curves (kobs vs inhibitor concentration); format: biochemical
Source text: The Kinact/Ki ratio is a key parameter for evaluating the potency of covalent inhibitors, as it quantitatively measures both their reactivity and affinity for the target enzyme. This parameter integrates two crucial aspects: KI, which reflects the inhibitor’s binding affinity, and Kinact, which describes the rate at which the covalent bond is formed. […] Therefore, this ratio is essential for ranking covalent inhibitors, optimizing their potency, and guiding structure-based drug design.
The experiments were performed in a 96-well microplate reader (SpectraMax Plus 384, Molecular Devices, USA), containing the […] of the buffer 60 mM DCIP, 50 mM Tris pH 8.15, 150 mM KCl, 0.1% Triton X-100, 50 μM DHO and 10 μM of LbDHODH at 165 nM. The reaction was monitored every 3 s at 610 nm over a period of 60 s, in triplicate, for the control and each concentration of the inhibitor. All assays were performed without incubation (0h) and with 4-h preincubation of the inhibitor with LbDHODH, using 5% DMSO (v/v) as control. […] To determine the IC50 values, the activity percentage data were fitted as a function of the concentration logarithm by nonlinear regression analysis (variable hillslope) using Prism 9.0 software (GraphPad Software, USA). […] The resulting kobs values were plotted as a function of inhibitor concentration, and the data in the initial linear region was fit to determine the slope, which is kinact/KI. All regressions were performed with GraphPad Prism 9.

[4] = target: T2, HsDHODH (Homo sapiens, UniProt Q02127); assay: Selectivity assay: HsDHODH single-dose inhibition (DCIP reduction); format: biochemical
T2 construct: made in house
T2 sequence (Q02127 whole entry): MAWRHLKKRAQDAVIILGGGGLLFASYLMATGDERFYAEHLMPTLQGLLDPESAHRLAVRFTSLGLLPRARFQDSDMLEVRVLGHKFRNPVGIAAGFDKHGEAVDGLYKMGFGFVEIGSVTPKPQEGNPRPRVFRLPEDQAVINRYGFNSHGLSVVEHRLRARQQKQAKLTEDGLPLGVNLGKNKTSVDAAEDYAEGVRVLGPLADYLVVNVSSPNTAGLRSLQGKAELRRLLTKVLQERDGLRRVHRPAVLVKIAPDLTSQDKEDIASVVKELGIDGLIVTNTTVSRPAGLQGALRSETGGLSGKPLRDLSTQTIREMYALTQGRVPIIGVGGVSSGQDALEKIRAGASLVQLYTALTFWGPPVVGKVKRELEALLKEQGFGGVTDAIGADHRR
Experimental: […]. This finding highlights the potential of barbituric acid derivatives as selective inhibitors of LbDHODH.
Human DHODH expression and purification were conducted following a protocol previously established in our laboratory. The purification was carried out by affinity chromatography on a Ni-NTA Agarose column (Qiagen[…] Cat. No. 30210). […] The reaction was performed in triplicate, initiated by adding 195 μL of reaction buffer to 5 μL of HsDHODH protein solution for a final concentration of 20 nM enzyme. As a blank, 195 μL of reaction buffer was added to 5 μL of Buffer A. The reaction was monitored at 610 nm every 3 s over 60 s. As a control, 5 μL of enzyme was added to 195 μL of reaction medium without compound. Enzymatic velocity was calculated, and the percentage of relative enzymatic activity was determined relative to the control.

[5] = test system: Leishmania braziliensis promastigotes; assay: Leishmanicidal activity, promastigote growth (SYBR Green, 72 h); format: cell-based, Leishmania (V.) braziliensis (MHOM/BR/1975/M2904); conditions: Leishmania braziliensis, L. braziliensis promastigotes, max 200 μM
Experimental: The cultures were adjusted to 4 × 10^6 parasites per mL, and 50 μL of each culture was added on a test plate with 384 wells (Corning, #CLS3658), along with the controls and compounds to be tested. Previously diluted compounds in DMSO were added to plates in decreasing concentrations, with a maximum concentration of 200 μM. Parasites were exposed to a final concentration of DMSO in various dilutes (final = 0.5%), and the culture medium was used as the control for the experiment. […] After adding the lysis buffer, the plates were incubated in the dark for 2 h with gentle shaking. The readings were done using a SpectraMax M3 reader (excitation at 485 nm and emission at 535 nm).

[6] = Cell viability / cytotoxicity assay (PrestoBlue, 72 h); format: cell-based; conditions: human; THP-1 cell line, 72 h, max 200 μM; read-out: CC50
Experimental: THP-1 cells (American Type Cell Collection, #TIB-202) were acquired in 2019 and stored frozen in liquid nitrogen. The cells were then maintained in RPMI 1640 (Thermo Fisher Scientific, #S31800–022) at 37 °C in a 5% CO2 atmosphere and routinely tested for Mycoplasma contamination by PCR using the primers 5′-[…] and 5′-[…]. To test the toxicity of compounds, 5000 cells were added to 96-well plates with a final volume of 80 μL centrifuged at 400g for 2 min and incubated with 150 ng/mL of phorbol myristate acetate (Merck, #P8139) for 48 h. The medium was replaced, and after 24 h, the compounds were added and tested at decreasing concentrations starting from 200 μM (10 μL/well). After 72 h of incubation, 10 μL of PrestoBlue Cell Viability Reagent (Thermo Fisher Scientific, #A13262) was added per well. After adding the reagent, the cells were incubated for 2 h at 37 °C in a 5% CO2 atmosphere, and fluorescence readings were performed using the SpectraMax M3 reader (excitation at 560 nm and emission at 590 nm).

[7] = phosphate buffered saline, aqueous buffer, kinetic from dmso stock
[8] = 0 h, pH 8.15, read-out: LbDHODH Activity±SD (%)
[9] = 4 h, pH 8.15, read-out: LbDHODH Activity±SD (%)
[10] = IC50 0 h, without preincubation
[11] = read-out: Single dose (0h) % activity
[12] = read-out: Single dose (4h) % activity

O=C(CCCN1CCC(O)(c2ccc(Cl)cc2)CC1)c1ccc(F)cc1 [Haloperidol, reference compound]
solubility kinetic at 2 h [1, 7]: 30.3 µM (≈ 11.4 µg/mL)

CC/C(=C(/CC)c1ccc(O)cc1)c1ccc(O)cc1 [Diethylstilbesterol, reference compound]
solubility kinetic at 2 h [1]: 9.98 µM (≈ 2.68 µg/mL)

O=C1NC(=O)C(=Cc2cccc(O)c2)C(=O)N1 [2g, 5-(3-Hydroxybenzylidene)pyrimidine-2,4,6(1H,3H,5H)-trione]
activity at 0.78125 µM [2, 8]: 90 ± 9% | activity at 1.5625 µM [2, 8]: 106 ± 12% | activity at 3.125 µM [2, 8]: 78 ± 13% | activity at 6.25 µM [2, 8]: 106 ± 15% | activity at 12.5 µM [2, 8]: 101 ± 10% | activity at 25 µM [2, 8]: 82 ± 17% | activity at 50 µM [2, 8]: 63 ± 8% | activity at 100 µM [2, 8]: 45 ± 5% | activity at 200 µM [2, 8]: 29 ± 3% | activity at 400 µM [2, 8]: 21 ± 2% | activity at 0.78125 µM [2, 9]: 88 ± 8% | activity at 1.5625 µM [2, 9]: 72 ± 9% | activity at 3.125 µM [2, 9]: 77 ± 13% | activity at 6.25 µM [2, 9]: 75 ± 10% | activity at 12.5 µM [2, 9]: 58 ± 5% | activity at 25 µM [2, 9]: 36 ± 4% | activity at 50 µM [2, 9]: 23 ± 3% | activity at 100 µM [2, 9]: 12.1 ± 2% | activity at 200 µM [2, 9]: 7.1 ± 2% | activity at 400 µM [2, 9]: 5.4 ± 3% | IC50 [2, 10]: 90 ± 10 µM | IC50 ([2]; IC50 4 h, 4-h preincubation): 13 ± 1 µM | activity at 100 µM [2, 11]: 22 ± 4% | activity at 100 µM [2, 12]: 8 ± 2% | inhibition at 100 µM [2]: 90 to 93% | Kobs ([3]; inhibitor 0.390625 µM): 0.003649 ± 0.003 s⁻¹ | Kobs ([3]; inhibitor 0.78125 µM): 0.003674 ± 0.003 s⁻¹ | Kobs ([3]; inhibitor 1.5625 µM): 0.00383 ± 0.002 s⁻¹ | Kobs ([3]; inhibitor 3.125 µM): 0.003621 ± 0.002 s⁻¹ | Kobs ([3]; inhibitor 6.25 µM): 0.003878 ± 0.002 s⁻¹ | Kobs ([3]; inhibitor 12.5 µM): 0.004049 ± 0.002 s⁻¹ | Kobs ([3]; inhibitor 25 µM): 0.004549 ± 0.002 s⁻¹ | Kobs ([3]; inhibitor 50 µM): 0.005211 ± 0.002 s⁻¹ | Kobs ([3]; inhibitor 100 µM): 0.007035 ± 0.001 s⁻¹ | Kobs ([3]; inhibitor 200 µM): 0.01421 ± 0.003 s⁻¹ | Kobs ([3]; inhibitor 400 µM): 0.01927 ± 0.006 s⁻¹ | activity at 100 µM [4, 11]: 101 ± 11% | activity at 100 µM [4, 12]: 96 ± 9% | EC50 [5]: > 200 µM | CC50 at 72 h [6]: 76 ± 12 µM

O=C1NC(=O)C(=Cc2ccccc2)C(=O)N1 [2a, 5-Benzylidenepyrimidine-2,4,6(1H,3H,5H)-trione]
activity at 0.195312 µM [2, 8]: 108 ± 9% | activity at 0.390625 µM [2, 8]: 106 ± 13% | activity at 0.78125 µM [2, 8]: 110 ± 8% | activity at 1.5625 µM [2, 8]: 103 ± 8% | activity at 3.125 µM [2, 8]: 106 ± 8% | activity at 6.25 µM [2, 8]: 88 ± 10% | activity at 12.5 µM [2, 8]: 73 ± 9% | activity at 25 µM [2, 8]: 60 ± 9% | activity at 50 µM [2, 8]: 54 ± 9% | activity at 100 µM [2, 8]: 36 ± 5% | activity at 200 µM [2, 8]: 27 ± 9% | activity at 400 µM [2, 8]: 20 ± 2% | activity at 0.195312 µM [2, 9]: 110 ± 16% | activity at 0.390625 µM [2, 9]: 92 ± 13% | activity at 0.78125 µM [2, 9]: 91 ± 6% | activity at 1.5625 µM [2, 9]: 84 ± 15% | activity at 3.125 µM [2, 9]: 74 ± 10% | activity at 6.25 µM [2, 9]: 54 ± 4% | activity at 12.5 µM [2, 9]: 55 ± 5% | activity at 25 µM [2, 9]: 44 ± 3% | activity at 50 µM [2, 9]: 29 ± 10% | activity at 100 µM [2, 9]: 21 ± 1% | activity at 200 µM [2, 9]: 5 ± 1% | activity at 400 µM [2, 9]: 6 ± 2% | IC50 [2, 10]: 56 ± 5 µM | IC50 ([2]; IC50 4 h, 4-h preincubation): 13 ± 2 µM | activity at 100 µM [2, 11]: 11 ± 9% | activity at 100 µM [2, 12]: 3.5 ± 0.2% | inhibition at 100 µM [2]: 96.5% | Kobs ([3]; inhibitor 0.390625 µM): 0.003884 ± 0.002 s⁻¹ | Kobs ([3]; inhibitor 0.78125 µM): 0.003327 ± 0.002 s⁻¹ | Kobs ([3]; inhibitor 1.5625 µM): 0.003467 ± 0.002 s⁻¹ | Kobs ([3]; inhibitor 3.125 µM): 0.003356 ± 0.002 s⁻¹ | Kobs ([3]; inhibitor 6.25 µM): 0.003415 ± 0.002 s⁻¹ | Kobs ([3]; inhibitor 12.5 µM): 0.003372 ± 0.002 s⁻¹ | Kobs ([3]; inhibitor 25 µM): 0.003515 ± 0.002 s⁻¹ | Kobs ([3]; inhibitor 50 µM): 0.003742 ± 0.001 s⁻¹ | Kobs ([3]; inhibitor 100 µM): 0.004728 ± 0.001 s⁻¹ | Kobs ([3]; inhibitor 200 µM): 0.006479 ± 0.003 s⁻¹ | kinact/KI ([3]; slope of kobs vs inhibitor concentration): 17 M⁻¹ s⁻¹ | activity at 100 µM [4, 11]: 87 ± 10% | activity at 100 µM [4, 12]: 79 ± 8% | EC50 [5]: > 200 µM | CC50 at 72 h [6]: > 200 µM

O=C(O)Cc1ccccc1Nc1c(Cl)cccc1Cl [Diclofenac Sodium, reference compound]
solubility kinetic at 2 h [1, 7]: 200 µM

O=C1NC(=O)C(CC=Cc2ccccc2)C(=O)N1 [3i, 5-Cinnamylpyrimidine-2,4,6(1H,3H,5H)-trione]
activity at 100 µM [2, 11]: 103 ± 3% | activity at 100 µM [2, 12]: 21 ± 7% | activity at 100 µM [4, 11]: 102 ± 12% | activity at 100 µM [4, 12]: 98 ± 10% | EC50 [5]: > 200 µM | CC50 at 72 h [6]: 193 ± 67 µM
